The values that follow are results of earlier work, collected in patent publication US9095555B2, “Cannabinoid formulations” (FULL SPECTRUM LABORATORIES LIMITED, priority 2011, dated 2015).

Structures are written as SMILES.

The conditions of data set [1]: prolonged contact with air, oxidation to cannabinol (CBN).

On to `CCCCCc1cc(O)c2c(c1)OC(C)(C)[C@@H]1CCC(C)=C[C@@H]21` [Dronabinol, Δ^9-tetrahydrocannabinol], for which the Oxidation stability result in data set [1] is given as “prone to oxidation”. For the setting “after oral administration”, the “Onset of therapeutic potency” value is 0.5 to 1 h. The “Amount reaching the blood stream by absorption through the digestive system” value (oral) is on record as 10-20 % of the administered dose. Moreover, the “Peak therapeutic effect lasting” value (post administration, oral) is 2 to 4 h.
